Reference: patent US9139577B2, “Sulfoximine substituted quinazolines for pharmaceutical compositions” (Boehringer Ingelheim International GmbH, priority 2013, dated 2015)

Molecular target: MNK2a (Homo sapiens (Human), UniProt Q9HBH9)
Experiment: MNK2a in vitro kinase assay (Assay 2), ADP-Glo
Assay type: biochemical
Settings: read-out: MNK2 IC50
Method: B. MNK2a In vitro Kinase Assay (Assay 2)
ASSAY SETUP: The inhibition of kinase activity of MNK2a was assessed using pre-activated GST-MNK2a. The white, 384-well OptiPlate F plates were purchased from PerkinElmer. The ADP-Glo Kinase Assay (including ultra pure ATP) was purchased from Promega (V9103). Activated MNK2a was obtained as described in WO2011/104340. […] ID No. 5 of WO 2011/104340 by the C-terminal —CONH2 group, was purchased from Thermo Fisher Scientific. All other materials were of highest grade commercially available. Compounds are tested in either serial dilutions or single dose concentrations. The compound stock solutions are 10 mM in 100% DMSO The serial compound dilutions are prepared in 100% DMSO followed by 1:27.3 intermediate dilution in assay buffer. The final DMSO concentration in assay will be <3%. In the 384-well plates 3 μl of test compound from the intermediate dilution is mixed with 4 μl of the activated MNK2 enzyme (final concentration of 10 nM) and 4 μl of the peptide (final concentration of 25 μM)/ultra pure ATP (final concentration of 20 μM), all dissolved in assay buffer. This step is followed by an incubation time of 90 min, then 10 μl of ADP Glo reagent are added, followed by 40 min of incubation. Then 20 μl of kinase detection reagent are admixed. The plates are sealed and after an incubation period of 30 min, the luminescence signal is measured in an Envision reader to determine the amount of produced ADP. All incubation steps are performed at room temperature. The assay buffer consists of 20 mM HEPES, 2 mM DTT, 0.01% BSA, 20 mM MgCl2 and 0.1% Pluronic F-127.
The luminescent signal generated is proportional to the ADP concentration produced and is correlated with activated MNK2 activity. The analysis of the data is performed by the calculation of the percentage of ATP consumption of activated MNK2 in the presence of the test compound compared to the consumption of ATP in the presence of activated MNK2 without compound. (RLU(sample)−RLU(low control))*100/(RLU(high value)−RLU(low control)) [RLU=relative luminescence units]
[…] values based on dose response curves are calculated with the AssayExplorer software.

Sequence of MNK2a (Q9HBH9 whole entry): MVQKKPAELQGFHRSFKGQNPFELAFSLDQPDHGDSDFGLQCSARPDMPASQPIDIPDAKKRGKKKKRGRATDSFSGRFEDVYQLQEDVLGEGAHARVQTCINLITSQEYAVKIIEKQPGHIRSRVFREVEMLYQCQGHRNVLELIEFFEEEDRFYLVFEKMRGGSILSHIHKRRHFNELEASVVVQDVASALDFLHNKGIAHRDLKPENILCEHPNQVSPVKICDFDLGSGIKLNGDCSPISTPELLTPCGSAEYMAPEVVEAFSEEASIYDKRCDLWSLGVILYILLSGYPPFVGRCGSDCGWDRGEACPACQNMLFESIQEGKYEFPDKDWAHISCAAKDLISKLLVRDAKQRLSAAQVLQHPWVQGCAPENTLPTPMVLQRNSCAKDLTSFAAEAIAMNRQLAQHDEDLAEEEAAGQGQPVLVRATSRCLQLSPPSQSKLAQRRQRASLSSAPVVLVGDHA

First: Cc1cc(N=S(C)(C)=O)cc2ncnc(Nc3ccc(F)cc3O[C@H](C)C(=O)N3CC[S+]([O-])CC3)c12 [Example 4.030]
Second: Cc1cc(N=S(C)(C)=O)cc2ncnc(Nc3ccc(F)cc3O[C@H](C)C(=O)N3CCC3)c12 [Example 4.049]
The IC50 of the first is 1.7-fold lower: 11 nM for the first, 19 nM for the second.

`CCCNC(=O)[C@@H](C)Oc1cc(F)ccc1Nc1ncnc2cc(N=S3(=O)CCCC3)cc(C)c12` [Example 4.033] and `Cc1cc(N=S2(=O)CCCC2)cc2ncnc(Nc3ccc(F)cc3O[C@H](C)C(=O)NCCF)c12` [Example 4.105] are the same in IC50: 2 nM for the first, 2 nM for the second.

Compared with `Cc1cc(N=S(C)(C)=O)cc2ncnc(Nc3ccc(F)cc3O[C@H](C)C(=O)NCC(F)F)c12` [Example 4.036], `C[C@@H](Oc1cc(F)ccc1Nc1ncnc2cc(N=S(C)(C)=O)cc(Cl)c12)C(=O)NCC(F)F` [Example 4.080] is 2-fold higher in IC50: 1 nM for the first, 2 nM for the second. The first is the more potent here.

Compared with `Cc1cc(N=S(C)(C)=O)cc2ncnc(Nc3ccc(F)cc3O[C@H](C)C(=O)NCC#N)c12` [Example 4.039], `C[C@@H](Oc1cc(F)ccc1Nc1ncnc2cc(N=S(C)(C)=O)cc(Cl)c12)C(=O)NCC#N` [Example 4.085] is 2-fold higher in IC50: 1 nM for the first, 2 nM for the second.

`Cc1cc(N=S2(=O)CCCC2)cc2ncnc(Nc3ccc(F)cc3O[C@H](C)C(=O)NCC(F)F)c12` [Example 4.043] and `Cc1cc(N=S2(=O)CCC2)cc2ncnc(Nc3ccc(F)cc3O[C@H](C)C(=O)NCCC(F)F)c12` [Example 4.116] are the same in IC50: 2 nM for the first, 2 nM for the second.

Going from `Cc1cc(N=S(C)(C)=O)cc2ncnc(Nc3ccc(F)cc3O[C@H](C)C(=O)N3CCC(=O)CC3)c12` [Example 4.046] to `CC#CCNC(=O)[C@@H](C)Oc1cc(F)ccc1Nc1ncnc2cc(N=S(C)(C)=O)cc(C)c12` [Example 4.066], the IC50 falls from 15 nM to 9 nM (1.7-fold).

Compared with `Cc1cc(N=S2(=O)CCCC2)cc2ncnc(Nc3ccc(F)cc3O[C@H](C)C(=O)N3CCC3)c12` [Example 4.070], `Cc1cc(N=S2(=O)CCC2)cc2ncnc(Nc3ccc(F)cc3O[C@H](C)C(=O)NC(C)C)c12` [Example 4.081] is 3.5-fold lower in IC50: 7 nM for the first, 2 nM for the second.

Going from `CC(C)NC(=O)[C@@H](C)Oc1cc(F)ccc1Nc1ncnc2cc(N=S(C)(C)=O)cc(Cl)c12` [Example 4.076] to `C[C@@H](Oc1cc(F)ccc1Nc1ncnc2cc(N=S(C)(C)=O)cc(Cl)c12)C(=O)NCCF` [Example 4.078], the IC50 falls from 4 nM to 2 nM (2-fold).

First: C[C@@H](C#N)NC(=O)[C@@H](C)Oc1cc(Cl)ccc1Nc1ncnc2cc(N=S3(=O)CCC3)cc(F)c12 [Example 4.077]
Second: C[C@@H](C#N)NC(=O)[C@@H](C)Oc1cc(Cl)ccc1Nc1ncnc2cc(N=S3(=O)CCCC3)cc(F)c12 [Example 4.093]
The IC50 of the first is 2-fold higher: 2 nM for the first, 1 nM for the second.

`Cc1cc(N=S2(=O)CCC2)cc2ncnc(Nc3ccc(Cl)cc3O[C@H](C)C(=O)N[C@@H](C)C(F)(F)F)c12` [Example 4.079] and `Cc1cc(N=S2(=O)CCC2)cc2ncnc(Nc3ccc(Cl)cc3O[C@H](C)C(=O)NCC(F)(F)F)c12` [Example 4.122] are the same in IC50: 1 nM for the first, 1 nM for the second.

First: Cc1cc(N=S2(=O)CCC2)cc2ncnc(Nc3ccc(F)cc3O[C@H](C)C(=O)NC34CC(C3)C4)c12 [Example 4.082]
Second: Cc1cc(N=S2(=O)CCC2)cc2ncnc(Nc3ccc(F)cc3O[C@H](C)C(=O)NCC#N)c12 [Example 4.103]
The IC50 of the first is 2-fold higher: 2 nM for the first, 1 nM for the second. The second is the more potent here.

Going from `CC(NC(=O)[C@@H](C)Oc1cc(F)ccc1Nc1ncnc2cc(N=S(C)(C)=O)cc(F)c12)C(F)F` (stereo partly shown) [Example 4.083] to `C[C@@H](Oc1cc(F)ccc1Nc1ncnc2cc(N=S(C)(C)=O)cc(F)c12)C(=O)NC(CF)CF` [Example 4.121], the IC50 falls from 8 nM to 5 nM (1.6-fold). The second is the more potent here.

Going from `C[C@@H](Oc1cc(F)ccc1Nc1ncnc2cc(N=S(C)(C)=O)cc(C(F)(F)F)c12)C(=O)NCC(F)(F)F` [Example 4.086] to `C[C@@H](Oc1cc(F)ccc1Nc1ncnc2cc(N=S(C)(C)=O)cc(Cl)c12)C(=O)NCC(F)(F)F` [Example 4.091], the IC50 falls from 2 nM to 1 nM (2-fold). The second is the more potent here.

Compared with `COc1cc(N=S2(=O)CCC2)cc2ncnc(Nc3ccc(Cl)cc3O[C@H](C)C(=O)NCC(F)(F)F)c12` [Example 4.087], `COc1cc(N=S2(=O)CCC2)cc2ncnc(Nc3ccc(F)cc3O[C@H](C)C(=O)N[C@@H](C)C(F)(F)F)c12` [Example 4.098] is 2-fold higher in IC50: 2 nM for the first, 4 nM for the second. The first is the more potent here.

First: Cc1cc(N=S2(=O)CCC2)cc2ncnc(Nc3ccc(F)cc3O[C@H](C)C(=O)NCCC(F)(F)F)c12 [Example 4.089]
Second: Cc1cc(N=S2(=O)CCC2)cc2ncnc(Nc3ccc(F)cc3O[C@H](C)C(=O)NCCF)c12 [Example 4.107]
The IC50 of the first is 2-fold lower: 1 nM for the first, 2 nM for the second. The first is the more potent here.

`C[C@@H](Oc1cc(F)ccc1Nc1ncnc2cc(N=S3(=O)CCC3)cc(Cl)c12)C(=O)N[C@H](C)C(F)(F)F` [Example 4.090] and `C[C@H](NC(=O)[C@@H](C)Oc1cc(F)ccc1Nc1ncnc2cc(N=S3(=O)CCC3)cc(Cl)c12)C(F)(F)F` [Example 4.096] are the same in IC50: 1 nM for the first, 1 nM for the second.

`Cc1cc(N=S(C)(C)=O)cc2ncnc(Nc3ccc(Cl)cc3O[C@H](C)C(=O)NCC(F)(F)F)c12` [Example 4.092] and `Cc1cc(N=S(C)(C)=O)cc2ncnc(Nc3ccc(F)cc3O[C@H](C)C(=O)NCC(F)(F)C(F)(F)F)c12` [Example 4.119] are the same in IC50: 2 nM for the first, 2 nM for the second.

`Cc1cc(N=S2(=O)CCC2)cc2ncnc(Nc3ccc(Cl)nc3O[C@H](C)C(=O)N[C@@H](C)C(F)(F)F)c12` [Example 4.094] and `Cc1cc(N=S2(=O)CCC2)cc2ncnc(Nc3ccc(Cl)nc3O[C@H](C)C(=O)NCC(F)(F)F)c12` [Example 4.124] are the same in IC50: 1 nM for the first, 1 nM for the second.

`CCOc1cc(N=S2(=O)CCC2)cc2ncnc(Nc3ccc(Cl)cc3O[C@H](C)C(=O)N[C@@H](C)C#N)c12` [Example 4.095] and `C[C@H](C#N)NC(=O)[C@@H](C)Oc1cc(F)ccc1Nc1ncnc2cc(N=S3(=O)CCC3)cc(Cl)c12` [Example 4.112] are the same in IC50: 2 nM for the first, 2 nM for the second.

First: C[C@@H](Oc1cc(F)ccc1Nc1ncnc2cc(N=S3(=O)CCC3)cc(F)c12)C(=O)NCC#N [Example 4.097]
Second: C[C@@H](Oc1cc(F)ccc1Nc1ncnc2cc(N=S3(=O)CCC3)cc(F)c12)C(=O)NCCF [Example 4.117]
The IC50 of the first is 3-fold lower: 1 nM for the first, 3 nM for the second. The first is the more potent here.

`CC(C#N)NC(=O)[C@@H](C)Oc1cc(F)ccc1Nc1ncnc2cc(N=S3(=O)CCC3)cc(F)c12` (stereo partly shown) [Example 4.099] and `C[C@@H](C#N)NC(=O)[C@@H](C)Oc1cc(F)ccc1Nc1ncnc2cc(N=S3(=O)CCC3)cc(F)c12` [Example 4.106] are the same in IC50: 2 nM for the first, 2 nM for the second.

Compared with `Cc1cc(N=S(C)(C)=O)cc2ncnc(Nc3ccc(F)cc3O[C@H](C)C(=O)NC(CF)CF)c12` [Example 4.101], `C[C@@H](Oc1cc(F)ccc1Nc1ncnc2cc(N=S(C)(C)=O)cc(Cl)c12)C(=O)NC(CF)CF` [Example 4.120] is 1.5-fold lower in IC50: 3 nM for the first, 2 nM for the second. The second is the more potent here.

Compared with `C[C@@H](C#N)NC(=O)[C@@H](C)Oc1cc(F)ccc1Nc1ncnc2cc(N=S3(=O)CCC3)cc(C(F)F)c12` [Example 4.102], `C[C@H](C#N)NC(=O)[C@@H](C)Oc1cc(F)ccc1Nc1ncnc2cc(N=S3(=O)CCC3)cc(F)c12` [Example 4.113] is 2-fold lower in IC50: 2 nM for the first, 1 nM for the second.

Going from `Cc1cc(N=S2(=O)CCC2)cc2ncnc(Nc3ccc(F)cc3O[C@H](C)C(=O)NC(C)C(F)F)c12` (stereo partly shown) [Example 4.109] to `Cc1cc(N=S2(=O)CCC2)cc2ncnc(Nc3ccc(Cl)cc3O[C@H](C)C(=O)NC(C)C(F)F)c12` (stereo partly shown) [Example 4.125], the IC50 falls from 2 nM to 1 nM (2-fold). The second is the more potent here.

`C[C@@H](Oc1cc(F)ccc1Nc1ncnc2cc(N=S3(=O)CCC3)cc(C(F)F)c12)C(=O)NCC(F)(F)F` [Example 4.110] and `C[C@@H](Oc1cc(F)ccc1Nc1ncnc2cc(N=S3(=O)CCC3)cc(F)c12)C(=O)NCC(F)(F)C(F)(F)F` [Example 4.129] are the same in IC50: 2 nM for the first, 2 nM for the second.

Compared with `Cc1cc(N=S2(=O)CCC2)cc2ncnc(Nc3ccc(Cl)cc3O[C@H](C)C(=O)NCC(F)F)c12` [Example 4.111], `C[C@@H](Oc1cc(F)ccc1Nc1ncnc2cc(N=S3(=O)CCC3)cc(F)c12)C(=O)NCC(F)F` [Example 4.123] is 3-fold higher in IC50: 1 nM for the first, 3 nM for the second. The first is the more potent here.

Going from `CC(C)NC(=O)[C@@H](C)Oc1cc(F)ccc1Nc1ncnc2cc(N=S3(=O)CCC3)cc(F)c12` [Example 4.114] to `CC(NC(=O)[C@@H](C)Oc1cc(F)ccc1Nc1ncnc2cc(N=S3(=O)CCC3)cc(F)c12)C(F)F` (stereo partly shown) [Example 4.130], the IC50 falls from 5 nM to 3 nM (1.7-fold).

`COc1cc(N=S2(=O)CCC2)cc2ncnc(Nc3ccc(F)cc3O[C@H](C)C(=O)NCC#N)c12` [Example 4.115] and `C[C@@H](Oc1cc(F)ccc1Nc1ncnc2cc(N=S3(=O)CCC3)cc(F)c12)C(=O)NC(CF)CF` [Example 4.128] are the same in IC50: 2 nM for the first, 2 nM for the second.

`CC(NC(=O)[C@@H](C)Oc1cc(F)ccc1Nc1ncnc2cc(N=S3(=O)CCC3)cc(Cl)c12)C(F)F` (stereo partly shown) [Example 4.126] and `Cc1cc(N=S(C)(C)=O)cc2ncnc(Nc3ccc(F)cc3O[C@H](C)C(=O)N[C@@H](C)C(F)(F)F)c12` [Example 4.127] are the same in IC50: 2 nM for the first, 2 nM for the second.
